Source: US20190230931A1, “SURFACE TREATMENTS” (priority 2014, published 2019)
Converted amounts (≈) assume the structure as drawn. Where two headings read alike, the source gives them in different places.

How the values were obtained:
Type in all cases: cell-based
[1] = tested on: Escherichia coli clinical isolate; assay: Susceptibility of clinical isolates by broth microdilution (MIC/MBC); details: for MBC: broth microdilution and plating, read-out: Minimum bactericidal concentration (MBC); for MIC: broth microdilution, 37° C., 18 hours, read-out: Minimum inhibitory concentration (MIC)
Method: (§1) Frozen stocks of the Staphylococcus sp. inocula were thawed at 37° C. for 10 minutes and vortexed before plating on blood agar and incubating at 37° C. for 18 hours. Single colonies were used to inoculate a volume of 10 mL of Mueller-Hinton Broth (MHB) and incubated at 37° C. for 18 hours in a shaking incubator (200 rpm). A volume of 100 μL of the actively growing culture was then used to inoculate a volume of 100 mL of MHB and incubated at 37° C. for 6½ hours. […] A volume of 100 μL of each dilution step was spread on plate count agar (PCA) plates and incubated at 37° C. for 18 hours to confirm viable cell numbers. The dilution to 10^−7 was used in the following steps.
(§2) The susceptibility of clinical isolates of Staphylococcus aureus, Escherichia coli and Pseudomonas aeruginosa to the constructs designated Spm-Ad-DOPE (9a) and NCSeCH2CO—CMG(2)-Ad-DOPE was determined by broth microdilution. Actively growing cultures of each clinical isolate were prepared as described above to obtain cultures with the following turbidities (OD600):
(§3) Serial dilutions of each culture to 10^−6 were prepared and used as inocula. Volumes of 50 μL of each dilution was spread on PCA plates and incubated at 37° C. for 18 hours. A two-fold dilution series for each of the two constructs, spermine (2) and selenous acid (H2SeO3) were prepared in sterile 96-well plates. Volumes of 50 μL of inocula were dispensed into a well containing a volume of 50 μL of the serially diluted construct, spermine (2) or selenous acid (H2SeO3). Following gentle mixing the plates were incubated in the dark at 37° C. for 18 hours (200 rpm). Minimum inhibitory concentrations (MIC) were thereby observed and minimum bactericidal concentrations (MBC) determined by plating aliquots from each well.

[2] = tested on: Pseudomonas aeruginosa clinical isolate; assay: as above; details: for MBC: broth microdilution and plating, read-out: Minimum bactericidal concentration (MBC); for MIC: broth microdilution, 37° C., 18 hours, read-out: Minimum inhibitory concentration (MIC)
Method: as §1, §2, §3

[3] = tested on: Staphylococcus aureus clinical isolate; assay: as above; details: for MBC: broth microdilution and plating, read-out: Minimum bactericidal concentration (MBC); for MIC: broth microdilution, 37° C., 18 hours, read-out: Minimum inhibitory concentration (MIC)
Method: as §1, §2, §3

[4] = tested on: Red blood cells (RBCs; group O); assay: Adherence of red blood cells to treated microplate well surfaces
Method: A stock solution of the construct designated Spm-Ad-DOPE (9a) was prepared in methanol at a concentration of 10 mg/mL. The stock solution was diluted to a concentration of 250 μg/mL in methanol and 25 μL volumes of the diluted stock solutions dispensed into each of the round bottomed wells of a multi-well microplate (Corning Inc.). The plates were allowed to dry before washing the wells 6 times with deionized water.
Red blood cells (RBCs; group O, up to 2 weeks old) were washed and re-suspended at a concentration of 1% packed cell volume (pcv) in phosphate-buffered saline (PBS). A 50 μL volume of the suspension of RBCs was dispensed into each of the wells and incubated for 1 hour at room temperature before washing 6 times with PBS. The RBCs were fixed by adding a 50 μL volume of a solution of glutaraldehyde in PBS at a concentration of 2.5% (w/v) and incubating for 10 minutes before washing each well with water and allowing to dry. The RBCs were lysed by adding a 50 μL volume of deionized water and incubating for 10 minutes before discarding the water and allowing to dry.
For scanning electron microscopy (SEM) the bottom of each well was cut from the plate and the treated surface sputter coated with platinum prior to imaging.
A two-fold serial dilution from each of the first wells was then performed. […]

O=[Se](O)O [H2SeO3, selenous acid]
MBC [1]: >1985.01 µM | MIC [1]: 1985.01 µM (≈ 256 µg/mL) | MBC [2]: >1985.01 µM | MIC [2]: >1985.01 µM | MBC [3]: >1985.01 µM | MIC [3]: 1985.01 µM (≈ 256 µg/mL)

NCCCNCCCCNCCCN [Spermine (2), spermine]
MBC ([1]; Escherichia coli): 118 µM (≈ 23.9 µg/mL) | MIC ([1]; Escherichia coli): 118 µM (≈ 23.9 µg/mL) | MBC ([2]; Pseudomonas aeruginosa): > 3790 µM | MIC ([2]; Pseudomonas aeruginosa): 3790 µM (≈ 766 µg/mL) | MBC ([3]; Staphylococcus aureus): 947 µM (≈ 192 µg/mL) | MIC ([3]; Staphylococcus aureus): 473 µM (≈ 95.8 µg/mL) | Attachment of RBCs to treated wells ([4]; spermine alone): not uniform or reproducible | Attachment of RBCs to treated wells ([4]; spermine alone in water): No cells were observed to adhere to the surface
